The results in this text go back to ChEMBL document CHEMBL5143672, “New diarylpentanoids and chalcones as potential antimicrobial adjuvants” (2022).

SMILES strings stand for the structures. Some results are limits rather than exact numbers.

Test [1] relates to Escherichia coli. Put plainly: Antibacterial activity against Escherichia coli ATCC 25922 assessed as inhibition of bacterial growth by broth microdilution method. The class given is functional.
In a further test the test system is Pseudomonas aeruginosa. Put plainly: Antibacterial activity against Pseudomonas aeruginosa ATCC 27853 assessed as inhibition of bacterial growth by broth microdilution method. The class given is functional.
A further test concerns Salmonella typhimurium. Kind of test: Antibacterial activity against Salmonella enterica serovar typhimurium SL1344 (SE03) assessed as inhibition of bacterial growth by broth microdilution method. The class given is functional, Salmonella enterica subsp. enterica serovar Typhimurium.
Test [2] concerns Staphylococcus aureus. Kind of test: Antibacterial activity against Staphylococcus aureus ATCC 25923 assessed as inhibition of bacterial growth by broth microdilution method. The format is functional.
In test [3] the test system is Enterococcus faecalis. Kind of test: Antibacterial activity against Enterococcus faecalis ATCC 29212 assessed as inhibition of bacterial growth by broth microdilution method. The format is functional.
Test [4] relates to Staphylococcus aureus. Kind of test: Antibacterial activity against methicillin and ofloxacin-resistant Staphylococcus aureus 272123 assessed as inhibition of bacterial growth by broth microdilution method. The class given is functional.
A further test has as its system Candida albicans. Put plainly: Antifungal activity against Candidia albicans ATCC 10231 assessed as inhibition of fungal growth by broth microdilution method. The format is functional.
Another test has as its system Aspergillus fumigatus. Kind of test: Antifungal activity against Aspergillus fumigatus ATCC 204305 assessed as inhibition of fungal growth by broth microdilution method. The format is functional.
The subject of the next test is Trichophyton rubrum. Put plainly: Antifungal activity against Trichophyton rubrum FF5 assessed as inhibition of fungal growth by broth microdilution method. The class given is functional.
Test [5] relates to Escherichia coli. Kind of test: Antimicrobial adjuvant activity against ESBL-producing Escherichia coli SA/2 assessed as potentiation of cefotaxime-induced antibacterial activity by measuring fold reduction in cefotaxime MIC at 64 ug/ml by broth microdilution method. The class given is functional. Conditions: dose 64 µg/ml.
The test system of test [6] is Enterococcus faecalis. Kind of test: Antimicrobial adjuvant activity against Enterococcus faecalis B3/101 assessed as potentiation of vancomycin-induced antibacterial activity by measuring fold reduction in vancomycin MIC at 64 ug/ml by broth microdilution method. The class given is functional. Conditions: dose 64 µg/ml.
Test [7] deals with Salmonella enterica subsp. enterica serovar Typhimurium. Put plainly: Inhibition of Multidrug resistance efflux pump in Salmonella enterica serovar typhimurium SL1344 (SE03) assessed as relative fluorescence index using ethidium bromide as substrate at 50 uM by fluorescence based analysis.
Test [8] in a line: Inhibition of Multidrug resistance efflux pump in Staphylococcus aureus 272123 assessed as relative fluorescence index using ethidium bromide as substrate at 50 uM by fluorescence based analysis.
The subject of test [9] is Staphylococcus aureus. Put plainly: Inhibition of biofilm formation in Staphylococcus aureus ATCC 25923 at 100 uM incubated for 48 hrs by crystal violet staining based analysis. The format is functional.
The subject of test [10] is Staphylococcus aureus. Kind of test: Inhibition of biofilm formation in Staphylococcus aureus 272123 at 100 uM incubated for 48 hrs by crystal violet staining based analysis. The format is functional.
Test [11] is described as follows: Inhibition of quorum sensing system in Chromobacterium violaceum wild type 85 assessed as reduction in pigment production incubated for 24 to 48 hrs. Conditions: time 24-48 hrs.
Another test deals with Serratia marcescens. Put plainly: Inhibition of quorum sensing system in Serratia marcescens AS-1 assessed as reduction in pigment production incubated for 24 to 48 hrs. Conditions: time 24-48 hrs.
A short description of test [12]: Inhibition of quorum sensing system in Chromobacterium violaceum CV026 assessed as reduction in pigment production co-cultured with Sphingomonas paucimobilis Ezf 10-17 for 24 to 48 hrs. Conditions: time 24-48 hrs.

Regarding `COc1ccccc1/C=C1\CCc2ccccc2C1=O`, the minimum inhibitory concentration (MIC) with Escherichia coli [1], in the test on Pseudomonas aeruginosa, in the test with Salmonella typhimurium, in the test with Staphylococcus aureus [2], in the test on Enterococcus faecalis [3] and with Staphylococcus aureus [4] was greater than 64 µg/mL throughout. Moreover, the MIC with Candida albicans, in the test on Aspergillus fumigatus and with Trichophyton rubrum was greater than 128 µg/mL throughout. Also, the “fold change (FC)” value with Escherichia coli [5] and in the test on Enterococcus faecalis [6] was 2 in each case. Further, the RFU in test [7] is 1.32; in test [8] it was 0.88. Besides, the inhibition at 100 µM is 0% in the test with Staphylococcus aureus [9] and 83.3% in the test on Staphylococcus aureus [10]. Moreover, the Activity in test [11] was 0 mm; with Serratia marcescens, 0 mm; in test [12] it was 48 mm.
`COc1cc(OC)c(OC)cc1/C=C1\CSc2ccccc2C1=O`: the MIC in the test with Escherichia coli [1], in the test with Pseudomonas aeruginosa, in the test with Salmonella typhimurium, in the test on Staphylococcus aureus [2], in the test with Enterococcus faecalis [3] and in the test with Staphylococcus aureus [4] was greater than 64 µg/mL each time. Further, the minimum inhibitory concentration (MIC) in the test with Candida albicans, in the test with Aspergillus fumigatus and with Trichophyton rubrum was greater than 128 µg/mL in each case. In addition, the “fold change (FC)” value in the test on Enterococcus faecalis [6] was found to be 2. The RFU in test [7] was -0.02; in [8], 0.36. Further, the inhibition at 100 µM was found to be 0% in the test on Staphylococcus aureus [9] and 74.1% with Staphylococcus aureus [10]. Besides, the Activity (in test [11]; with Serratia marcescens; in test [12]) was 0 mm in each case.
Take `COc1ccc(/C=C2\COC/C(=C\c3ccc(OC)c(OC)c3)C2=O)cc1OC`: the MIC in the test on Escherichia coli [1], with Pseudomonas aeruginosa, in the test with Salmonella typhimurium, in the test with Staphylococcus aureus [2], in the test on Enterococcus faecalis [3] and in the test on Staphylococcus aureus [4] was greater than 64 µg/mL in each case. The minimal inhibitory concentration (MIC) with Candida albicans, in the test on Aspergillus fumigatus and with Trichophyton rubrum was greater than 128 µg/mL throughout. Moreover, the “fold change (FC)” value in the test on Escherichia coli [5] is 2. Besides, the results for the RFU in test [7] and in [8] were -0.02 and 2.47, respectively. Moreover, the inhibition at 100 µM in the test with Staphylococcus aureus [9] and in the test with Staphylococcus aureus [10] was 0% throughout. Further, the Activity (in test [11]; in the test on Serratia marcescens; in [12]) was 0 mm in each case.
For `O=C1/C(=C/c2ccc(Br)cc2)COC/C1=C\c1ccc(Br)cc1`, the MIC in the test with Escherichia coli [1], in the test with Pseudomonas aeruginosa, in the test with Salmonella typhimurium, in the test on Staphylococcus aureus [2], with Enterococcus faecalis [3] and in the test on Staphylococcus aureus [4] was greater than 64 µg/mL throughout. Besides, the minimum inhibitory concentration (MIC) in the test with Candida albicans, in the test on Aspergillus fumigatus and with Trichophyton rubrum was greater than 128 µg/mL each time. The “fold change (FC)” value in the test with Escherichia coli [5] turned out to be 8. The results for the RFU in test [7] and in [8] were 0.06 and 0.53, respectively. Further, the inhibition at 100 µM in the test with Staphylococcus aureus [9] was 0%; in the test with Staphylococcus aureus [10] it was 51.2%. The Activity (in test [11]; in the test with Serratia marcescens; in test [12]) was 0 mm in each case.
Regarding `COc1ccccc1/C=C1\CCC/C(=C\c2ccccc2OC)C1=O`, the MIC in the test on Escherichia coli [1], with Pseudomonas aeruginosa, in the test with Salmonella typhimurium, with Staphylococcus aureus [2], with Enterococcus faecalis [3] and with Staphylococcus aureus [4] was greater than 64 µg/mL throughout. For the same compound, the MIC in the test on Candida albicans, in the test on Aspergillus fumigatus and with Trichophyton rubrum was greater than 128 µg/mL each time. Also, the “fold change (FC)” value in the test with Enterococcus faecalis [6] was determined as 2. Besides, the RFU was -0.31 in test [7] and 0.48 in test [8]. The inhibition at 100 µM was 0% in the test on Staphylococcus aureus [9] and 65.9% in the test with Staphylococcus aureus [10]. Also, the Activity (in [11]; in the test on Serratia marcescens; in test [12]) was 0 mm in each case.
